pIC50: −log10 of the molar value. Read-outs that look alike come from different tables or passages of the source.

Assay [1] concerns MCF7 adenocarcinoma cell line. The experiment in a line: Cell proliferation studies in MCF7 cells (ATP-Lite). It is filed as cell-based. The settings on record: 10 days incubation, cell viability by ATP-Lite luminescence, read-out: PROLIFERATION_CTG_MCF7 IC50. How it is done: Cell Proliferation Studies in MCF7 Cells
Cell proliferation studies were conducted in MCF7 adenocarcinoma cell line. Cells were maintained in DMEM (Corning, Catalog #: 10-013-CV) supplemented with 10% v/v FBS (Gibco, Catalog #: 26140-079), 1% v/v Penicillin Streptomycin (Gibco, Catalog #15140-122) Cells were seeded in 384-well plates at a density of 100 or 200 cells/well. Compounds dissolved in DMSO were plated in quadruplicate using a digital dispenser (D300E, Tecan) and tested on a 9-point 3-fold serial dilution. Cells were incubated for 10 days in a 37° C. active humidified incubator at 5% CO2. A media exchange and second compound addition were performed on day 5. Cell viability was measured using the ATP-Lite 1-Step Luminescence reagent (Perkin Elmer, Catalog #: 6016731) as per manufacturer's instructions. Luminescence signal was measured with a multimode plate reader (Envision 2105, Perkin Elmer). Raw data files were imported to Dotmatics Screening Ultra for IC50 analysis. Luminescence values were normalized to both background and DMSO controls to obtain a percentage of viable cells relative to DMSO vehicle control.

In a further assay the target is CDK6/Cyclin D1 (Homo sapiens (Human), UniProt Q00534). As to the kind of experiment: CDK6/CyclinD1 enzymatic activity assay (TR-FRET). It is filed as biochemical. The settings on record: CDK6/Cyclin D1 1 nM, ATP 250 μM, read-out: CDK6_D1 IC50. How it is done:
CDK6/CyclinD1 Enzymatic Activity Assay
(§1) The inhibitory activity of compounds was evaluated in vitro using TR-FRET assay with white 384-well low volume microplate (Greiner Bio-One). CDK6/Cyclin D1 catalyzed phosphorylation of peptide in the presence and absence of compounds was measured and used in IC50 determination. Recombinant protein complex CDK6/Cyclin D1, expressed from insect cell, was purchased from ProQinase. Testing compounds were dissolved in DMSO at 0.1 mM and tested in 9-dose IC50 mode. The reaction mixture was prepared by mixing CDK6/Cyclin D1 (1 nM final), ULight-4E-BP1 (100 nM final, Perkinelmer, TRF0128-D), and ATP (250 μM final) in assay buffer (20 mM of HEPES pH 7.4, 1 mM of EGTA, 0.05% BSA, 0.005% Tween 20, and 1 mM TCEP). The compound of interest in DMSO was added to each well in 3-fold serial dilution by dispenser (TECAN D300E). After 20 minutes preincubation at room temperature, 0.1 μL MgCl2 (10 mM final) was added to initiate the reaction. Following a 60 minutes incubation at 37° C., the reaction was stopped by addition of 2 μL of quenching buffer consisting of Lance detection buffer (Perkinelmer CR97-100C), 2 nM LANCE Ultra Europium-anti-P-4E-BP1 (Perkinelmer, TRF0216-D), 10 mM EDTA, and incubate at room temperature for additional 60 minutes in dark. The reaction signal was measured by Envision multimode plate reader (PerkinElmer, 2102-0010). IC50 values were determined by fitting the data to the standard 4 parameters with Hill Slope using GraphPad Prism software.
For orientation: TR-FRET usually uses a lanthanide donor and a delayed reading to cut background.

The next assay concerns the target CDK4/Cyclin D1 (Homo sapiens (Human), UniProt P11802). As to the kind of experiment: CDK4/CyclinD1 enzymatic activity assay (TR-FRET). Type of assay: biochemical. The settings on record: CDK4/CyclinD1 1 nM, ATP 2 mM, read-out: CDK4_D1 IC50. How it is done:
CDK4/CyclinD1 Enzymatic Activity Assay
as §1, with “Bio-One). CDK4/Cyclin” for “Bio-One). CDK6/Cyclin”, “was measured.” for “was measured and used in”, “complex CDK4/Cyclin” for “complex CDK6/Cyclin”, “mixing CDK4/CyclinD1” for “mixing CDK6/Cyclin D1”, “ATP (2 mM” for “ATP (250 μM”, “temperature,” for “temperature, 0.1 μL”

CDK4/Cyclin D1, sequence (P11802 whole entry): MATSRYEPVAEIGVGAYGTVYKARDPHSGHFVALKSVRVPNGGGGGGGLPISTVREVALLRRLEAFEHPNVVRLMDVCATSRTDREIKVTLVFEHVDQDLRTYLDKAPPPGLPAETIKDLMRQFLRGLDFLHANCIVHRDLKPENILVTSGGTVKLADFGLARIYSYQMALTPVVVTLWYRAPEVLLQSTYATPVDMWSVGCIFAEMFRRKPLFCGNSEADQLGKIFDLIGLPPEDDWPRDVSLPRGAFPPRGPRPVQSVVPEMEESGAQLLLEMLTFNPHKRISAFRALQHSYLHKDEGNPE
CDK4/Cyclin D1, sequence (P24385 whole entry partner): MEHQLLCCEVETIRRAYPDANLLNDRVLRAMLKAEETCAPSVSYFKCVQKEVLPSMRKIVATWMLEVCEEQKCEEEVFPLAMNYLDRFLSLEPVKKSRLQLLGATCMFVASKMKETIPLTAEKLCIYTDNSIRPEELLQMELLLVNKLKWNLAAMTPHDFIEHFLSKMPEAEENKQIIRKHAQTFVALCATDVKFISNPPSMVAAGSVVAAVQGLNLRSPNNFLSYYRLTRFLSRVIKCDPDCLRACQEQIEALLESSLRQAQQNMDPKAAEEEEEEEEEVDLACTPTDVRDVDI
CDK6/Cyclin D1, sequence (Q00534 whole entry): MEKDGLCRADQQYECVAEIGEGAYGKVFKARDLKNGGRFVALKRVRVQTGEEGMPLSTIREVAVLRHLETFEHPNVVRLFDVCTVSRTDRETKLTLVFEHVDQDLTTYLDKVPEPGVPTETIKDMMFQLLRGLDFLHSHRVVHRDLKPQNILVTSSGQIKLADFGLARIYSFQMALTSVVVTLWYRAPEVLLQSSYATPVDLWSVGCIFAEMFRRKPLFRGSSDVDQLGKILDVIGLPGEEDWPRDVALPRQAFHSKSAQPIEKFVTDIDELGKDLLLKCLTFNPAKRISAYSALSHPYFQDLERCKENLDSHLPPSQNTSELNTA
CDK6/Cyclin D1, sequence (P24385 whole entry partner): as the sequence (P24385 whole entry partner) above

As for `CN1CCC(c2ccc(Nc3ncc(F)c(-c4cc5c(s4)C4(CCCCC4)CN(C)C5=O)n3)nc2)CC1` [Example 5, 2′-(5-Fluoro-2-((5-(1-methylpiperidin-4-yl)pyridin-2-yl)amino)pyrimidin-4-yl)-5′-methyl-5′,6′-dihydro-4′H-spiro[cyclohexane-1,7′-thieno[3,2-c]pyridin]-4′-one], the pIC50 in assay [1] (Homo sapiens, 240 h) is no less than 7.70; at CDK6/Cyclin D1 it was 6.70 to 7.70; at CDK4/Cyclin D1, no less than 7.70.
On to `CN1CCC(c2ccc(Nc3ncc(F)c(-c4cc5c(s4)C4(CC4)N(C)C5=O)n3)nc2)CC1` [Example 8], for which the pIC50 in assay [1] is 6.70 to 7.70; on CDK6/Cyclin D1, no less than 7.70; at CDK4/Cyclin D1 it was no less than 7.70.
As to `CN1CCC(c2ccc(Nc3ncc(F)c(-c4sc5c(c4Cl)C(=O)N(C)C54CC4)n3)nc2)CC1` [Example 9, 3′-chloro-2′-(5-Fluoro-2-((5-(1-methylpiperidin-4-yl)pyridin-2-yl)amino)pyrimidin-4-yl)-5′-methylspiro[cyclopropane-1,6′-thieno[2,3-c]pyrrol]-4′(5′H)-one], the pIC50 in assay [1] (Homo sapiens, 240 h) is 6.70 to 7.70; on CDK6/Cyclin D1, no less than 7.70; on CDK4/Cyclin D1, no less than 7.70.
Take `CN1CCC(c2ccc(Nc3ncc(F)c(-c4sc5c(c4C(F)(F)F)C(=O)N(C)C54CC4)n3)nc2)CC1` [Example 10, 2′-(5-Fluoro-2-((5-(1-methyl-piperidin-4-yl)pyridin-2-yl)amino)pyrimidin-4-yl)-5′-methyl-3′-(trifluoromethyl)spiro[cyclopropane-1,6′-thieno[2,3-c]pyrrol]-4′(5′H)-one]: the pIC50 was 6.70 to 7.70 in assay [1] (Homo sapiens, 240 h); no less than 7.70 at CDK6/Cyclin D1; no less than 7.70 at CDK4/Cyclin D1.
Take `CCN1CCN(Cc2ccc(Nc3ncc(F)c(-c4sc5c(c4C)C(=O)N(C)C54CC4)n3)nc2)CC1` [Example 13, 2′-(2-((5-((4-Ethylpiperazin-1-yl)methyl)pyridin-2-yl)amino)-5-fluoropyrimidin-4-yl)-3′,5′-dimethylspiro[cyclopropane-1,6′-thieno[2,3-c]pyrrol]-4′(5′H)-one]: the pIC50 in assay [1] (Homo sapiens, 240 h) is 6.70 to 7.70; on CDK6/Cyclin D1, no less than 7.70; at CDK4/Cyclin D1, no less than 7.70.
As for `CCN1CC2(C1)CN(c1ccc(Nc3ncc(F)c(-c4cc5c(s4)C4(CCCC4)N(CC)C5=O)n3)nc1)C2` [Example 21, 5′-Ethyl-2′-(2-((5-(6-ethyl-2,6-diazaspiro[3.3]heptan-2-yl)pyridin-2-yl)amino)-5-fluoropyrimidin-4-yl)spiro[cyclopentane-1,6′-thieno[2,3-c]pyrrol]-4′(5′H)-one], the pIC50 was 6.70 to 7.70 in assay [1] (Homo sapiens, 240 h); no less than 7.70 at CDK6/Cyclin D1; no less than 7.70 at CDK4/Cyclin D1.
Consider `CCN1C(=O)c2cc(-c3nc(Nc4ccc(C5CCN(C)CC5)cn4)ncc3F)sc2C12CCCC2` [Example 22, 5′-Ethyl-2′-(5-fluoro-2-((5-(1-methylpiperidin-4-yl)pyridin-2-yl)amino)pyrimidin-4-yl)spiro[cyclopentane-1,6′-thieno[2,3-c]pyrrol]-4′(5′H)-one], for which the pIC50 in assay [1] (Homo sapiens, 240 h) was 6.70 to 7.70; at CDK6/Cyclin D1 it was 6.70 to 7.70; at CDK4/Cyclin D1, no less than 7.70.
In the case of `CCN1CCC(c2ccc(Nc3ncc(F)c(-c4cc5c(s4)C4(CCCC4)N(C)C5=O)n3)nc2)CC1` [Example 23, 2′-(2-((5-(1-Ethylpiperidin-4-yl)pyridin-2-yl)amino)-5-fluoropyrimidin-4-yl)-5′-methylspiro[cyclopentane-1,6′-thieno[2,3-c]pyrrol]-4′(5′H)-one], the pIC50 in assay [1] (Homo sapiens, 240 h) was 6.70 to 7.70; at CDK6/Cyclin D1, no less than 7.70; on CDK4/Cyclin D1, no less than 7.70.
`CN1CCC(c2ccc(Nc3ncc(F)c(-c4sc5c(c4C(F)(F)F)C(=O)N(C)C54CCCC4)n3)nc2)CC1` [Example 26, 2′-(5-Fluoro-2-((5-(1-methylpiperidin-4-yl)pyridin-2-yl)amino)pyrimidin-4-yl)-5′-methyl-3′-(trifluoromethyl)spiro[cyclopentane-1,6′-thieno[2,3-c]pyrrol]-4′(5′H)-one]: the pIC50 in assay [1] (Homo sapiens, 240 h) was no less than 7.70; at CDK6/Cyclin D1, no less than 7.70; on CDK4/Cyclin D1, no less than 7.70.
For the compound `CN1CCC(c2ccc(Nc3ncc(F)c(-c4sc5c(c4Cl)C(=O)N(C)C54CCCC4)n3)nc2)CC1` [Example 27, 3′-Chloro-2′-(5-fluoro-2-((5-(1-methylpiperidin-4-yl)pyridin-2-yl)amino)pyrimidin-4-yl)-5′-methylspiro[cyclopentane-1,6′-thieno[2,3-c]pyrrol]-4′(5′H)-one], the pIC50 in assay [1] (Homo sapiens, 240 h) was no less than 7.70; at CDK6/Cyclin D1, no less than 7.70; at CDK4/Cyclin D1, no less than 7.70.
Consider `Cc1c(-c2nc(Nc3ccc(C4CCCN(C)C4)cn3)ncc2F)sc2c1C(=O)N(C)CC21CC1` (stereo not drawn) [Example 30, 2′-(5-Fluoro-2-((5-(1-methyl-piperidin-3-yl)pyridin-2-yl)amino)pyrimidin-4-yl)-3′,5′-dimethyl-5′,6′-dihydro-4′H-spiro[cyclopropane-1,7′-thieno[3,2-c]pyridin]-4′-one], for which the pIC50 in assay [1] (Homo sapiens, 240 h) is 6.70 to 7.70; at CDK6/Cyclin D1, no less than 7.70; at CDK4/Cyclin D1 it was no less than 7.70.
With `Cc1c(-c2nc(Nc3ccc(C4CCN(C5CCOC5)CC4)cn3)ncc2F)sc2c1C(=O)N(C)CC21CC1` (stereo not drawn) [Example 32, 2′-(5-Fluoro-2-((5-(1-(tetrahydrofuran-3-yl)piperidin-4-yl)pyridin-2-yl)amino)pyrimidin-4-yl)-3′,5′-dimethyl-5′,6′-dihydro-4′H-spiro[cyclopropane-1,7′-thieno[3,2-c]pyridin]-4′-one], the pIC50 in assay [1] (Homo sapiens, 240 h) was 6.70 to 7.70; on CDK6/Cyclin D1, no less than 7.70; on CDK4/Cyclin D1, no less than 7.70.
Turning to `CCN1CCC12CN(c1ccc(Nc3ncc(F)c(-c4cc5c(s4)C4(CCC4)CN(C)C5=O)n3)nc1)C2` [Example 51, 2′-(2-((5-(1-Ethyl-1,6-diazaspiro[3.3]heptan-6-yl)pyridin-2-yl)amino)-5-fluoropyrimidin-4-yl)-5′-methyl-5′,6′-dihydro-4′H-spiro[cyclobutane-1,7′-thieno[3,2-c]pyridin]-4′-one], the pIC50 in assay [1] (Homo sapiens, 240 h) was 6.70 to 7.70; at CDK4/Cyclin D1, no less than 7.70.
Take `CN1CC2(CCCC2)c2sc(-c3nc(Nc4ccc(N5CCN6CCC5CC6)cn4)ncc3F)cc2C1=O` [Example 64, 2-[2-[[5-(1,4-Diazabicyclo[3.2.2]nonan-4-yl)pyridin-2-yl]amino]-5-fluoropyrimidin-4-yl]-5-methylspiro[6H-thieno[3,2-c]pyridine-7,1′-cyclopentane]-4-one]: the pIC50 is 6.70 to 7.70 in assay [1] (Homo sapiens, 240 h) and no less than 7.70 at CDK4/Cyclin D1.
As to `Cc1c(-c2nc(Nc3ccc(C4CCN(C(C)C)CC4)nn3)ncc2F)sc2c1C(=O)N(C)CC21CC1` [Example 83, 2′-(5-Fluoro-2-((6-(1-isopropylpiperidin-4-yl)pyridazin-3-yl)amino)pyrimidin-4-yl)-3′,5′-dimethyl-5′,6′-dihydro-4′H-spiro[cyclopropane-1,7′-thieno[3,2-c]pyridin]-4′-one], the pIC50 is 6.70 to 7.70 in assay [1] (Homo sapiens, 240 h) and no less than 7.70 at CDK4/Cyclin D1.
